Laboratory results from patent publication US20260078130A1, “NAMPT MODULATORS, PREPARATIONS, AND USES THEREOF” (SIRONAX LTD., priority 2022, published 2026).
Where two headings read alike, the source gives them in different places.

Experiments:
[1] = system: endogenous NAMPT in U2OS cells; experiment: Cellular NAD+ modulation assay (NAD/NADH-Glo, U2OS cells); format: cell-based; settings: Homo sapiens; for maximal fold induction: read-out: Cellular Emax
Procedure, shortened: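 NAD/NADH-Glo luminescence quantified NAD+ after acid treatment (60 °C, 15 min) and neutralization of DTAB lysates. Beforehand, U2OS cells seeded 16 h earlier received compound concentration series for 24 h at 37 °C. Values given as half-maximal activation concentration (EC50) and maximal fold change versus DMSO (Emax).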

[2] = biological target: T1, human enzyme NAMPT (full length) (Homo sapiens, UniProt P43490); experiment: NMN fluorescence biochemical assay (stimulation of NMN synthesis by NAMPT); settings: for EC50: concentration giving half-maximal activation, read-out: Enzymatic EC50; for Enzymatic Emax: fold change of maximal activation compared to DMSO
T1 construct: human enzyme NAMPT (full length)
T1 sequence (P43490 whole entry): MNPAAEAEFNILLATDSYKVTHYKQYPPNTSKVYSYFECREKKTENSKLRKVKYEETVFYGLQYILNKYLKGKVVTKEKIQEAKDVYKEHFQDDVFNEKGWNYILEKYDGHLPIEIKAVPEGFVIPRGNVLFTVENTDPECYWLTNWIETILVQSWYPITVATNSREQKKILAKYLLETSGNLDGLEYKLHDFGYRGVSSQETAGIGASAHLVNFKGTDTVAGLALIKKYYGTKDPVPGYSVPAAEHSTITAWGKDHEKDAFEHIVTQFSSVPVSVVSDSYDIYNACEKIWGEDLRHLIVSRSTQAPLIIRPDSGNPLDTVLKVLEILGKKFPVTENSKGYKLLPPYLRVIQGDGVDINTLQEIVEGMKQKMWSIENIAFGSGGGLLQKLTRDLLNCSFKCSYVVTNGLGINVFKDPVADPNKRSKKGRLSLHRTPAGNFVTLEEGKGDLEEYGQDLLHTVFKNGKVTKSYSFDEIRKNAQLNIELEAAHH
Procedure, shortened: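 Full-length human NAMPT (100 nM) was preincubated 15 min at 37 °C with compound in 50 mM Tris-HCl pH 7.5, 10 mM MgCl2, 2 mM DTT, then reacted 1 h at 37 °C with 50 μM NAM, 100 μM PRPP, 4 mM ATP (stated solution concentrations). NMN was derivatised with acetophenone/KOH then formic acid and read at Ex/Em 382/445 nm; EC50 and Emax (fold over DMSO) reported.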

[3] = 24 hours incubation with compound
[4] = NMN synthesis by purified human NAMPT (100 nM)
[5] = 24 hours incubation, cellular NAD+
[6] = NMN fluorescence assay, purified human NAMPT 100 nM

| SMILES | EC50 [1, 3] | maximal fold induction [1, 3] | EC50 [2, 4] | Enzymatic Emax [2] | EC50 [1, 5] | maximal fold induction [1, 5] | EC50 [2, 6] |
| --- | --- | --- | --- | --- | --- | --- | --- |
| COC1CN(c2ccc3c(c2)C(C)N(Cc2ccc4[nH]c(=O)oc4c2)C3=O)C1 (centres unmarked) [Compound 128, 6-((5-(3-methoxyazetidin-1-yl)-3-methyl-1-oxoisoindolin-2-yl)methyl)benzo[d]oxazol-2(3H)-one] | 0.5 to 5 µM | > 1.5 | ≥ 5 µM | B (3≥B>2) | – | – | – |
| O=C1c2ccccc2C(Cc2nccc(F)c2Br)N1Cc1ccc2[nH]c(=O)oc2c1 (centres unmarked) [Compound 211, 6-((1-((3-bromo-4-fluoropyridin-2-yl)methyl)-3-oxoisoindolin-2-yl)methyl)benzo[d]oxazol-2(3H)-one] | < 0.5 µM | > 1.5 | < 0.5 µM | A (A>3) | – | – | – |
| CCOc1ccccc1CC1c2ccccc2C(=O)N1Cc1ccc2[nH]c(=O)oc2c1 (centres unmarked) [Compound 166, 6-((1-(2-ethoxybenzyl)-3-oxoisoindolin-2-yl)methyl)benzo[d]oxazol-2(3H)-one] | 0.5 to 5 µM | 1.2 to 1.5 | 0.5 to 5 µM | B (3≥B>2) | – | – | – |
| CCCn1c2ccccc2c(=O)n1Cc1ccc(O)cc1 [Compound 25, 2-(4-hydroxybenzyl)-1-propyl-1,2-dihydro-3H-indazol-3-one] | 5 to 50 µM | > 1.5 | ≥ 5 µM | A (A>3) | – | – | – |
| COc1ccc(CN2C(=O)c3ccccc3C2Cc2c(C)ccnc2C#N)cc1 (centres unmarked) [Compound 567, 3-((2-(4-methoxybenzyl)-3-oxoisoindolin-1-yl)methyl)-4-methylpicolinonitrile] | – | – | – | B (3≥B>2) | < 0.5 µM | > 1.5 | < 0.5 µM |
| N#Cc1ncccc1CC1c2ccccc2C(=O)N1Cc1ccc2[nH]c(=O)oc2c1 (centres unmarked) [Compound 201, 3-((3-oxo-2-((2-oxo-2,3-dihydrobenzo[d]oxazol-6-yl)methyl)isoindolin-1-yl)methyl) picolinonitrile] | < 0.5 µM | > 1.5 | 0.5 to 5 µM | A (A>3) | – | – | – |
| Cn1ncc(Cl)c1CC1c2ccccc2C(=O)N1Cc1n[nH]c(=O)o1 (centres unmarked) [Compound 632, 5-((1-((4-chloro-1-methyl-1H-pyrazol-5-yl)methyl)-3-oxoisoindolin-2-yl)methyl)-1,3,4-oxadiazol-2(3H)-one] | – | – | – | B (3≥B>2) | 0.5 to 5 µM | > 1.5 | ≥ 5 µM |
| C#Cc1cccnc1CC1c2ccccc2C(=O)N1Cc1ccc2[nH]c(=O)oc2c1 (centres unmarked) [Compound 215, 6-((1-((3-ethynylpyridin-2-yl)methyl)-3-oxoisoindolin-2-yl)methyl)benzo[d]oxazol-2(3H)-one] | < 0.5 µM | > 1.5 | 0.5 to 5 µM | A (A>3) | – | – | – |
| N#Cc1ccnc(C#N)c1CC1c2ccccc2C(=O)N1Cc1ccc2[nH]nnc2c1 (centres unmarked) [Compound 353, 3-((2-((1H-benzo[d][1,2,3]triazol-5-yl)methyl)-3-oxoisoindolin-1-yl)methyl)pyridine-2,4-dicarbonitrile] | – | – | – | A (A>3) | < 0.5 µM | > 1.5 | < 0.5 µM |
| O=C1c2ccccc2C(CC2CCCCC2)N1Cc1ccc2[nH]c(=O)oc2c1 (centres unmarked) [Compound 167, 6-((1-(cyclohexylmethyl)-3-oxoisoindolin-2-yl)methyl)benzo[d]oxazol-2(3H)-one] | 0.5 to 5 µM | 1.2 to 1.5 | 0.5 to 5 µM | B (3≥B>2) | – | – | – |
| Cc1ccc2c(c1)C(=O)N(Cc1ccc3[nH]c(=O)oc3c1)C2=O [Compound 297, 5-methyl-2-((2-oxo-2,3-dihydrobenzo[d]oxazol-6-yl)methyl)isoindoline-1,3-dione] | 0.5 to 5 µM | 1.2 to 1.5 | 0.5 to 5 µM | C (2≥C) | – | – | – |
| CCC1c2ccccc2C(=O)N1Cc1ccc2[nH]c(=O)oc2c1 (centres unmarked) [Compound 53, 6-((1-ethyl-3-oxoisoindolin-2-yl)methyl) benzo[d]oxazol-2(3H)-one] | 5 to 50 µM | 1.2 to 1.5 | ≥ 5 µM | B (3≥B>2) | – | – | – |
| COc1ccc(CN2C(=O)c3ccccc3C2Cc2c(Cl)cnn2C)nc1F (centres unmarked) [Compound 543, 3-((4-chloro-1-methyl-1H-pyrazol-5-yl)methyl)-2-((6-fluoro-5-methoxypyridin-2-yl)methyl)isoindolin-1-one] | – | – | – | B (3≥B>2) | 0.5 to 5 µM | > 1.5 | 0.5 to 5 µM |
| O=C1c2ccc(N3CCCC3)cc2CN1Cc1ccc(O)cc1 [Compound 298, 2-(4-hydroxybenzyl)-5-(pyrrolidin-1-yl)isoindolin-1-one] | 0.5 to 5 µM | 1.2 to 1.5 | 0.5 to 5 µM | C (2≥C) | – | – | – |
| Cc1n[nH]cc1C#CCN1C(=O)c2ccccc2C1Cc1c(Cl)cnn1C (centres unmarked) [Compound 478, 3-((4-chloro-1-methyl-1H-pyrazol-5-yl)methyl)-2-(3-(3-methyl-1H-pyrazol-4-yl)prop-2-yn-1-yl)isoindolin-1-one] | – | – | – | B (3≥B>2) | 0.5 to 5 µM | > 1.5 | 0.5 to 5 µM |
| Cn1ncc(Cl)c1CC1c2ccccc2C(=O)N1C[C@]1(F)C[C@@]2(CNC(=O)O2)C1 (some centres unmarked) [Compound 487, (2r,4r)-2-((1-((4-chloro-1-methyl-1H-pyrazol-5-yl)methyl)-3-oxoisoindolin-2-yl)methyl)-2-fluoro-5-oxa-7-azaspiro[3.4]octan-6-one] | – | – | – | B (3≥B>2) | < 0.5 µM | > 1.5 | 0.5 to 5 µM |
| O=C1c2ccccc2C(CCc2ccccc2)N1Cc1ccc2[nH]c(=O)oc2c1 (centres unmarked) [Compound 114, 6-((1-oxo-3-phenethylisoindolin-2-yl)methyl)benzo[d]oxazol-2(3H)-one] | 5 to 50 µM | > 1.5 | 0.5 to 5 µM | B (3≥B>2) | – | – | – |
| O=C1c2ccc(C3CC3)cc2C(Cc2ccccc2)N1Cc1ccc2[nH]c(=O)oc2c1 (centres unmarked) [Compound 116, 6-((3-benzyl-5-cyclopropyl-1-oxoisoindolin-2-yl)methyl)benzo[d]oxazol-2(3H)-one] | 0.5 to 5 µM | > 1.5 | < 0.5 µM | B (3≥B>2) | – | – | – |
| O=C1c2ccccc2C(c2ccccc2)N1Cc1ccc2[nH]c(=O)oc2c1 (centres unmarked) [Compound 67, 6-((1-oxo-3-phenylisoindolin-2-yl)methyl)benzo[d]oxazol-2(3H)-one] | 5 to 50 µM | 1.2 to 1.5 | ≥ 5 µM | B (3≥B>2) | – | – | – |
| COc1cc(CN2C(=O)c3ccccc3C2Cc2c(Cl)cnn2C)on1 (centres unmarked) [Compound 593, 3-((4-chloro-1-methyl-1H-pyrazol-5-yl)methyl)-2-((3-methoxyisoxazol-5-yl)methyl)isoindolin-1-one] | – | – | – | B (3≥B>2) | 0.5 to 5 µM | 1.2 to 1.5 | ≥ 5 µM |
| Cc1cccc2c1C(Cc1c(Cl)cnn1C)N(CC1CC3(CNC(=O)O3)C1)C2=O (centres unmarked) [Compound 470, 2-((3-((4-chloro-1-methyl-1H-pyrazol-5-yl)methyl)-4-methyl-1-oxoisoindolin-2-yl)methyl)-5-oxa-7-azaspiro[3.4]octan-6-one] | – | – | – | B (3≥B>2) | 0.5 to 5 µM | > 1.5 | ≥ 5 µM |
| Cn1ncc(Cl)c1CC1c2cc(C(F)F)ccc2C(=O)N1Cc1ccc2[nH]nnc2c1 (centres unmarked) [Compound 435, 2-((1H-benzo[d][1,2,3]triazol-5-yl)methyl)-3-((4-chloro-1-methyl-1H-pyrazol-5-yl)methyl)-5-(difluoromethyl)isoindolin-1-one] | – | – | – | A (A>3) | < 0.5 µM | > 1.5 | < 0.5 µM |
| Cn1c(=O)oc2cc(CN3C(=O)c4ccccc4C3Cc3c(Br)cccc3C#N)ccc21 (centres unmarked) [Compound 552, 3-bromo-2-((2-((3-methyl-2-oxo-2,3-dihydrobenzo[d]oxazol-6-yl)methyl)-3-oxoisoindolin-1-yl)methyl)benzonitrile] | – | – | – | A (A>3) | < 0.5 µM | > 1.5 | < 0.5 µM |
| N#Cc1ccc(F)c(CC2c3ccccc3C(=O)N2Cc2ccc3[nH]c(=O)oc3c2)c1 (centres unmarked) [Compound 202, 4-fluoro-3-((3-oxo-2-((2-oxo-2,3-dihydrobenzo[d]oxazol-6-yl)methyl)isoindolin-1-yl)methyl)benzonitrile] | < 0.5 µM | > 1.5 | 0.5 to 5 µM | A (A>3) | – | – | – |
| CC1c2ccccc2C(=O)N1Cc1ccc2[nH]nnc2c1 (centres unmarked) [Compound 44, 2-((1H-benzo[d][1,2,3]triazol-5-yl)methyl)-3-methylisoindolin-1-one] | 5 to 50 µM | 1.2 to 1.5 | ≥ 5 µM | B (3≥B>2) | – | – | – |
| Cn1ncc(Cl)c1CC1c2cc(Cl)cc(F)c2C2(CC2)N1CC1CC2(CNC(=O)O2)C1 (centres unmarked) [Compound 580, 2-((5′-chloro-3′-((4-chloro-1-methyl-1H-pyrazol-5-yl)methyl)-7′-fluorospiro[cyclopropane-1,1′-isoindolin]-2′-yl)methyl)-5-oxa-7-azaspiro[3.4]octan-6-one] | – | – | – | A (A>3) | 0.5 to 5 µM | 1.2 to 1.5 | 0.5 to 5 µM |
